US20170306409A1, “CANCER PATIENT SELECTION FOR ADMINISTRATION OF WNT SIGNALING INHIBITORS USING RNF43 MUTATION STATUS” (NOVARTIS AG, priority 2012, published 2017)

How the values were obtained:
Type in all cases: cell-based, human
Axin2, KP1-N = assay: Axin2 qPCR assay (pathway inhibition)
Experimental: (§1) For reverse transcription and quantitative PCR (qPCR), total RNA was extracted from cells or tumors using the RNeasy Plus Mini Kit (Qiagen). 1 μg of RNA were reverse transcribed with Taqman Reverse Transcription Reagents (Applied Biosystems) according to the manufacturer's instruction. Quantitative PCR was performed in 12 μl reactions consisting of 0.6 μl of 20× Taqman probe and PCR primer mix, 6 μl 2× Taqman FAST Advanced Master Mix (Applied Biosystems), and 5.4 μl diluted cDNA template. The thermocycling conditions utilized were 20 seconds at 95° C., followed by 40 cycles of 1 second at 95° C. and 20 seconds at 60° C. All experiments were performed in quadruplicates. Gene expression analysis was performed using the comparative ΔΔCT method and normalized with the housekeeping gene GUSB or 18S. The Taqman probes were purchased from Applied Biosystems.

Axin2, L3.3 = assay: Axin2 qPCR assay (pathway inhibition)
Experimental: as §1

Axin2, KP4 = assay: Axin2 qPCR assay (pathway inhibition)
Experimental: as §1

Axin2, SU86.86 = assay: Axin2 qPCR assay (pathway inhibition)
Experimental: as §1

Axin2, PK59 = assay: Axin2 qPCR assay (pathway inhibition)
Experimental: as §1

BXPC3 = assay: foci formation assay; conditions: 1 μM LGK974
Experimental: (§2) To assay foci formation, 6,000˜12,000 cells of indicated cell lines were seeded in 6 well tissue culture plate in 2 ml growth media. After overnight culture for cell attachment, media was replaced with fresh growth media containing 1 μM LGK974 in the absence and presence of recombinant Wnt3a. For DOX-inducible β-catenin shRNA experiment, cells were treated 5 ng/ml doxycycline. When cell colonies reached desirable size, cells were fixed with 4% formalin in PBS and stained with crystal violet solution. After a few washes, plates were dried and imaged.
(§3) Identification of pancreatic cancer lines containing inactivation mutation of RNF43. Discovery of LGK974, a potent and selective inhibitor of Porcupine, offered us a unique chemical tool to systemically examine Wnt dependency in a large panel of cancer cell lines. We tested LGK974 in a large panel of pancreatic cancer cell lines using foci formation assay. Foci formation assay was utilized because it is more sensitive than routine growth assays such as CellTiter-Glo, and it is less affected by the different growth rates of various cell lines.

PL45 = assay: foci formation assay; conditions: 1 μM LGK974
Experimental: as §2, §3

PK45H = assay: foci formation assay; conditions: 1 μM LGK974
Experimental: as §2, §3

PaTu-8988S = assay: foci formation assay; conditions: 1 μM LGK974
Experimental: as §2, §3

Panc05.04 = assay: foci formation assay; conditions: 1 μM LGK974
Experimental: as §2, §3

SU86.86 = assay: foci formation assay; conditions: 1 μM LGK974
Experimental: as §2, §3

Capan-2 = assay: foci formation assay; conditions: 1 μM LGK974
Experimental: as §2, §3

Hs766T = assay: foci formation assay; conditions: 1 μM LGK974
Experimental: as §2, §3

KP3 = assay: foci formation assay; conditions: 1 μM LGK974
Experimental: as §2, §3

Pan02.03 = assay: foci formation assay; conditions: 1 μM LGK974
Experimental: as §2, §3

PaTu-8902 = assay: foci formation assay; conditions: 1 μM LGK974
Experimental: as §2, §3

HPAFII = assay: foci formation assay; conditions: 1 μM LGK974
Experimental: as §2, §3

YAPC = assay: foci formation assay; conditions: 1 μM LGK974
Experimental: as §2, §3

Capan-1 = assay: foci formation assay; conditions: 1 μM LGK974
Experimental: as §2, §3

PK1 = assay: foci formation assay; conditions: 1 μM LGK974
Experimental: as §2, §3

PaTu-8988T = assay: foci formation assay; conditions: 1 μM LGK974
Experimental: as §2, §3

Panc08.13 = assay: foci formation assay; conditions: 1 μM LGK974
Experimental: as §2, §3

CFPAC-1 = assay: foci formation assay; conditions: 1 μM LGK974
Experimental: as §2, §3

SW1990 = assay: foci formation assay; conditions: 1 μM LGK974
Experimental: as §2, §3

Panc04.03 = assay: foci formation assay; conditions: 1 μM LGK974
Experimental: as §2, §3

KP2 = assay: foci formation assay; conditions: 1 μM LGK974
Experimental: as §2, §3

KP-1NL = assay: foci formation assay; conditions: 1 μM LGK974
Experimental: as §2, §3

PANC-1 = assay: foci formation assay; conditions: 1 μM LGK974
Experimental: as §2, §3

KP1-N = assay: foci formation assay; conditions: 1 μM LGK974
Experimental: as §2, §3

HuPT3 = assay: foci formation assay; conditions: 1 μM LGK974
Experimental: as §2, §3

L3.3 = assay: foci formation assay; conditions: 1 μM LGK974
Experimental: as §2, §3

SUIT-2 = assay: foci formation assay; conditions: 1 μM LGK974
Experimental: as §2, §3

Panc10.05 = assay: foci formation assay; conditions: 1 μM LGK974
Experimental: as §2, §3

PK59 = assay: foci formation assay; conditions: 1 μM LGK974
Experimental: as §2, §3

KP4 = assay: foci formation assay; conditions: 1 μM LGK974
Experimental: as §2, §3

MIA CaPa-2 = assay: foci formation assay; conditions: 1 μM LGK974
Experimental: as §2, §3

QGP-1 = assay: foci formation assay; conditions: 1 μM LGK974
Experimental: as §2, §3

PSN-1 = assay: foci formation assay; conditions: 1 μM LGK974
Experimental: as §2, §3

SMILES: Cc1cc(-c2ncc(CC(=O)Nc3ccc(-c4cnccn4)cn3)cc2C)ccn1 [LGK974, 2-[5-methyl-6-(2-methylpyridin-4-yl)pyridin-3-yl]-N-[5-(pyrazin-2-yl)pyridin-2-yl]acetamide]
- Pathway inhibition in Axin2 qPCR assay (Axin2, KP1-N): Yes
- Pathway inhibition in Axin2 qPCR assay (Axin2, L3.3): No
- Pathway inhibition in Axin2 qPCR assay (Axin2, KP4): No
- Pathway inhibition in Axin2 qPCR assay (Axin2, SU86.86): Yes
- Pathway inhibition in Axin2 qPCR assay (Axin2, PK59): Yes
- Growth inhibition in foci formation assay (BXPC3): No
- Growth inhibition in foci formation assay (PL45): not sensitive and No
- Growth inhibition in foci formation assay (PK45H): No
- Growth inhibition in foci formation assay (PaTu-8988S): strong growth inhibitory activity and strongly inhibited and Yes
- Growth inhibition in foci formation assay (Panc05.04): No
- Growth inhibition in foci formation assay (SU86.86): No
- Growth inhibition in foci formation assay (Capan-2): strong growth inhibitory activity and strongly inhibited and Yes
- Growth inhibition in foci formation assay (Hs766T): No
- Growth inhibition in foci formation assay (KP3): No
- Growth inhibition in foci formation assay (Pan02.03): No
- Growth inhibition in foci formation assay (PaTu-8902): No
- Growth inhibition in foci formation assay (HPAFII): strong growth inhibitory activity and strongly inhibited and Yes
- Growth inhibition in foci formation assay (YAPC): without significant effect and No
- Growth inhibition in foci formation assay (Capan-1): No
- Growth inhibition in foci formation assay (PK1): without significant effect and No
- Growth inhibition in foci formation assay (PaTu-8988T): not sensitive and No
- Growth inhibition in foci formation assay (Panc08.13): No
- Growth inhibition in foci formation assay (CFPAC-1): No
- Growth inhibition in foci formation assay (SW1990): No
- Growth inhibition in foci formation assay (Panc04.03): No
- Growth inhibition in foci formation assay (KP2): No
- Growth inhibition in foci formation assay (KP-1NL): No
- Growth inhibition in foci formation assay (PANC-1): No
- Growth inhibition in foci formation assay (KP1-N): No
- Growth inhibition in foci formation assay (HuPT3): No
- Growth inhibition in foci formation assay (L3.3): No
- Growth inhibition in foci formation assay (SUIT-2): No
- Growth inhibition in foci formation assay (Panc10.05): not sensitive and No
- Growth inhibition in foci formation assay (PK59): No
- Growth inhibition in foci formation assay (KP4): No
- Growth inhibition in foci formation assay (MIA CaPa-2): No
- Growth inhibition in foci formation assay (QGP-1): No
- Growth inhibition in foci formation assay (PSN-1): No
